Data published in patent US10197552B2, “Monitoring cell-to-cell interactions” (Oakland University, priority 2015, dated 2019).

Legend:
Assay type in all cases: cell-based, human
[1] = system: adhesion of AML cells (KG-1) to HUVECs; assay: Number of adherent AML cells on HUVECs in co-culture, flow cytometric analysis; details: treated KG-1/HUVEC co-cultures as, in comparison to untreated controls; FIG. 15
Description: (§1) As illustrated throughout Example 1, acute myeloid leukemia (AML) cells mediate endothelial cell (EC) activation. In this Example, the effects of anti-inflammatories, namely thalidomide and lenalidomide, to prevent AML induced EC activation were tested. KG-1 cells were pre-treated with 100 μM thalidomide or 1 μM lenalidomide (half of total dose) for 1-hour. Co-cultures were then established by adding the pre-treated KG-1 cells (1×10^6 cells) to cultures containing HUVECs (˜80% confluence) with the addition of the second half of the total dose of the respective anti-inflammatories. After 24-hours, E-selectin expression on HUVECs was measured as a marker of EC activation using flow cytometry. Untreated (i.e., no anti-inflammatory added) co-cultures of KG-1 on HUVECs were used as controls. The results are shown in FIG. 14, where the + indicates whether the co-culture was the control, was treated with thalidomide, or was treated with lenalidomide.
It was determined whether thalidomide and lenalidomide were able to reduce EC activation mediated AML cell adhesion. Adherent cells were collected from treated (as described above) and control co-cultures, and the numbers of adherent AML cells in each population were enumerated based on flow cytometric analysis. […]

[2] = system: E-selectin expression on HUVECs; assay: E-selectin expression on HUVECs in KG-1 co-cultures, flow cytometry (marker of EC activation); details: KG-1/HUVEC co-culture, 24 hours; KG-1 pre-treated 1 hour with 100 μM thalidomide or 1 μM lenalidomide (half of total dose), second half added to co-culture; vs untreated co-cultures; FIG. 14
Description: as §1

[3] = system: HUVECs; assay: QCM monitoring of HUVEC activation by TNF-α, with microscope observation
Description: The gold QCM consists of a thin AT-cut quartz crystal wafer with a gold electrode on each side (9 MHz, non-polished with ˜1000 Å gold, geometric area is 0.28 cm^2, Beijing Chenjing Electronics Co., Ltd., China). The gold QCM was mounted between two biocompatible silicon O-rings to allow only one side of the gold electrode to be exposed to the liquid. The reaction chamber above the crystal was held with a 1 mL chlorinated polyethylene centrifugal tube. The device, being covered, was placed in a humidified CO2 incubator controlled at 5% CO2 and 37° C. to prevent evaporation from the culture holder.
An RQCM instrument (Maxtek Inc., USA) was used to simultaneously record resonant frequency (f0) and motional resistance (R1) of the QCM electrodes.
After being sterilized with 75% ethanol under UV light for 0.5 hours, the QCM culture-chamber was washed three times with PBS. Then, 500 μL of EGM-2 medium was added and the entire culture-chamber was put into the incubator. As soon as the QCM readout reached a stable baseline, 50 μL of EGM-2 medium containing freshly trypsinized 3×10^4 cells was added. All QCM measurements were performed in a static mode without stirring. The Δf0 and ΔR1 responses were simultaneously monitored in the process of cell attachment and growth in the next 24 hours.
Next, the EGM-2 medium was replaced by a medium containing 10% FBS and TNF-α with a specified concentration (ranging from 0 ng/ml to […]), allowing the HUVECs to suffer growth and activation up to 20 hours. After the concentration of HL-60 and KG-1 cells reached 5×10^6 cells mL^−1, they were collected from the medium by centrifugation at 1500 g for 5 minutes to remove IMDM, and were re-suspended with EGM-2 medium supplemented with 10% FBS. This was performed to reduce variations of the viscosity of the medium for measurements. The density of these suspension cells was determined with a hemacytometer. […]

[4] = system: adhesion of KG-1 cells to activated HUVECs; assay: QCM response to KG-1 cell binding on HUVECs activated with different TNF-α concentrations; details: 25×10^4 KG-1 cells on HUVECs activated by TNF-α at different concentrations; FIGS. 12C, 12D
Description: Next, the EGM-2 medium was replaced by a medium containing 10% FBS and TNF-α with a specified concentration (ranging from 0 ng/ml to […]), allowing the HUVECs to suffer growth and activation up to 20 hours. After the concentration of HL-60 and KG-1 cells reached 5×10^6 cells mL^−1, they were collected from the medium by centrifugation at 1500 g for 5 minutes to remove IMDM, and were re-suspended with EGM-2 medium supplemented with 10% FBS. This was performed to reduce variations of the viscosity of the medium for measurements. The density of these suspension cells was determined with a hemacytometer.
Finally, 100 μL of the cell-suspending solution was added into the measuring chamber. The Δf0 and ΔR1 responses were simultaneously monitored for 22 hours.
These examples confirmed that AML cells adhere to activated HUVECs based on binding with E-selectin. It is possible that the extent of activation of HUVECs, which is closely related to TNF-α concentration, should have an influence on the binding of AML cells. FIGS. 12A and 12B show the QCM responses induced by the addition of KG-1 cells with the same concentration (i.e., 25×10^4) on activated HUVECs after stimulation of TNF-α with different concentrations. […]

[5] = maximum reported concentration of TNF-α (range 0 to 400 ng ml^−1), 3×10^4 HUVECs on QCM gold electrode

Nc1cccc2c1CN(C1CCC(=O)NC1=O)C2=O (centres unmarked) [lenalidomide]
numbers of adherent AML cells [1]: significantly reduce | E-selectin expression on HUVECs [2]: significant reduction

O=C1CCC(N2C(=O)c3ccccc3C2=O)C(=O)N1 (centres unmarked) [thalidomide]
numbers of adherent AML cells [1]: significantly reduce | E-selectin expression on HUVECs [2]: significant reduction

TNF-α
activation of HUVECs (shape-change, microscope images) ([3]; 40, 200 and 400 ng mL^−1 TNF-α, FIGS. 5B-5D): effectively induce the activation of HUVECs in a dose dependent manner | frequency shifts in Stage IV as compared to those in Stage I [3, 5]: 15% | resistance changes in Stage IV as compared to those in Stage I [3, 5]: 7% | QCM response shifts (|Δf0| and ΔR1 changes) on addition of KG-1 cells [4]: increased with enhancement of TNF-α concentrations in the range of 2 ng mL^−1-200 ng mL^−1
